Results taken from US20130203649A1, “INHIBITORS OF TLR SIGNALING BY TARGETING TIR DOMAIN INTERFACES” (UNIVERSITY OF MARYLAND, BALTIMORE, priority 2012, published 2013).
No end group written: not given here.

Legend:
TLR4 = assay: LPS-induced STAT1-Y701 phosphorylation in macrophages (immunoblotting); format: cell-based, mouse; settings: 2 h after LPS
TLR4/TRAM = target: T1, TLR4/TRAM (Mus musculus, UniProt Q9QUK6); assay: TLR4/TRAM coimmunoprecipitation in transfected HEK293T cells; format: cell-based; settings: 20 μM peptide, 1 h
T1 construct: TLR4-Cer expression vector was described earlier (1); expressed in transfected cells; host or cells: HEK293T
T1 sequence (Q9QUK6 26-835): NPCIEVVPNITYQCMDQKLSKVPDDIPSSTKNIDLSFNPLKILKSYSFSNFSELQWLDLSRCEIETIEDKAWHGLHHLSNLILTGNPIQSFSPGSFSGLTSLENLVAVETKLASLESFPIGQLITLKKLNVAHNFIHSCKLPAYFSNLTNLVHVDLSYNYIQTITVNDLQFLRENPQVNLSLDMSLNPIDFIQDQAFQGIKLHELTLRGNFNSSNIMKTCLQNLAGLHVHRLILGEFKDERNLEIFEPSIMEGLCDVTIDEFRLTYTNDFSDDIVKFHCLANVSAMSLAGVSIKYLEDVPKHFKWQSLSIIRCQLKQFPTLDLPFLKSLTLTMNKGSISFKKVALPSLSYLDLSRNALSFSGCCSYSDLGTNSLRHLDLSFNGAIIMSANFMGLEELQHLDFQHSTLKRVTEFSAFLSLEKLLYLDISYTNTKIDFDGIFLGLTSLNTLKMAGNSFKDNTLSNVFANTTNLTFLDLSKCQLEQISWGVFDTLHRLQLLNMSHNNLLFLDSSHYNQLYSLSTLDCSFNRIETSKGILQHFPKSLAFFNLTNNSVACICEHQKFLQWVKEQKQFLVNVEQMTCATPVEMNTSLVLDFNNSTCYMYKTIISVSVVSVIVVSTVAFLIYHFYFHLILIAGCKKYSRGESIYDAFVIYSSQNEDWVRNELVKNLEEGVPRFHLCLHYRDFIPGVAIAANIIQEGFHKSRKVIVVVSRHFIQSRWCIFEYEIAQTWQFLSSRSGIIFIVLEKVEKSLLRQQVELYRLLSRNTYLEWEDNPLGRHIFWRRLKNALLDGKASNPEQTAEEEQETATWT
Description: (§1) FIG. 9. TM4, TM6, and TR6 block adapter recruitment to TLR4. (A) A total of 6×10^5 HEK293T cells was transfected with 1 μg pcDNA3.1-mTLR4-Cer and pEF-BOS-mTRAM-HA. Twenty-four hours posttransfection, the cells were treated with 20 μM of each peptide for 1 h. Cell lysates were immunoprecipitated with anti-GFP Ab and blotted with anti-HA-HRP. (B) A total of 2×10^6 mouse peritoneal macrophages was pretreated with 20 μM of each peptide for 30 min prior to stimulation with 100 ng/ml LPS. Cell extracts were obtained 30 min after LPS treatment, immunoprecipitated with goat anti-TLR4 Ab, and blotted with rabbit anti-MyD88 or anti-TLR4 Ab. Data are representative of three independent experiments.
(§2) HEK293T cells were transfected with indicated plasmids using Superfect Transfection Reagent (Qiagen). […] Protein was quantified using Bio-Rad protein quantification kit. Equal amount of protein was loaded and analyzed by 10% SDS-PAGE and immunoblotting. The cell extracts containing equal amount of protein were incubated with 1 μg Ab for 2 h, followed by 4-h incubation with 25 μl protein G agarose beads (Roche); the beads were then washed four times with lysis buffer, boiled in […] sample loading buffer, and analyzed by immunoblotting. […]

TLR4/MyD88 = assay: LPS-induced TLR4/MyD88 coimmunoprecipitation in mouse peritoneal macrophages; format: cell-based; settings: 20 μM peptide 30 min before LPS 100 ng/ml
Description: as §1, §2

With RQIKIWFQNRRMKWKKCLQDAIDHSGFT [TF5] the “LPS-induced STAT1-Y701 phosphorylation” value (TLR4) was “inhibit”.

In the case of RQIKIWFQNRRMKWKKPGFLRDPWCKYQML [TR6], the TLR4/TRAM coimmunoprecipitation (TLR4/TRAM) was “inhibited TLR4/TRAM association, although less efficiently than TM6” and the “LPS-induced TLR4/MyD88 association” value (TLR4/MyD88) was “efficiently prevented”.
